From patent publication US20240180893A1, “METHODS OF TREATMENT OF BREAST CANCER” (AstraZeneca AB, priority 2022, published 2024)

Tests used:
Assay type in all cases: in vivo, human (post-menopausal women)
[1] = system: HR+, HER2− metastatic or loco-regionally recurrent breast cancer; assay: SERENA-2 phase 2 study: PFS, RECIST 1.1, by Blinded Independent Central Review (BICR); settings: all patients
From the text: Measures to minimise bias: randomisation and blinding. This is an open-label study. All patients will receive active treatment. As the Investigators will not be blinded to study treatments, a BICR of tumour scans will be performed to provide independent tumour response assessment in addition to response evaluation by Investigator. To reduce potential bias during the study, eligible patients will be randomly allocated at a 1:1:1:1 ratio to receive 1 of the 4 study treatments.
Blinded Independent Central Review of tumour assessments. Coded copies of all imaging assessments (regardless of modality and including unscheduled visit scans) will be sent to an appointed Contract Research Organisation (CRO) for central analysis. Results of this independent review will not be communicated to Investigators, and the management of patients will be based solely upon the results of the RECIST assessment conducted by the Investigator. The imaging scans will be reviewed by 2 independent radiologists using RECIST version 1.1 and will be adjudicated, if required (i.e., 2 reviewers will review the scans and, in case of a disagreement, adjudication is performed by a separate reviewer). The independent reviewers will be blinded to study treatment.
The BICR will be conducted on an ongoing basis throughout the study. Where possible scans will be batched, and an in-patient series of assessments read together. For each patient, the BICR will define the overall visit response (i.e., the response obtained overall at each visit by assessing TLs, NTLs, and new lesions) and no programmatic derivation of overall visit response is necessary.
Blinded independent central review of tumour response. A sensitivity analysis for the primary endpoint for this study will be based on the BICR of the radiological scans. For each patient, the BICR will define the overall visit response (i.e., the response obtained overall at each visit by assessing TLS, NTLs and new lesions) data and no programmatic derivation of visit response is necessary. PFS will be derived programmatically from the overall visit responses determined for each visit. A BICR of all patients will be performed for the final database lock for the primary analysis of PFS. The BICR will cover all available scans up to the respective DCO.
As a sensitivity analysis to the primary endpoint, the above analysis methods will be repeated based on the BICR.

[2] = system: HR+, HER2− metastatic or loco-regionally recurrent breast cancer; assay: SERENA-2 phase 2 study: objective response rate (ORR), patients with measurable disease; settings: for Number of patients with response: includes unconfirmed responses; for Adjusted response rate (%): logistic regression, factors prior CDK4/6 inhibitor and lung and/or liver metastasis; for ORR: comparison against fulvestrant, odds ratio: odds ratio > 1 favors AZD9833; for (%) of patients with response: patients with measurable disease
From the text: In embodiments the specification provides a method of treatment of hormone receptor positive (HR+), human epidermal growth factor receptor 2 negative (HER2−), metastatic or loco-regionally recurrent breast cancer, comprising administering camizestrant to a patient suffering from such cancer, characterised in that the cancer has recurred or progressed following at least one prior line of endocrine therapy, wherein the treatment delivers an improvement in objective response rate (ORR) relative to that obtainable with fulvestrant treatment. The ORR is defined as the percentage of patients with at least 1 Investigator-assessed visit response of complete response (CR) or partial response (PR) prior to any evidence of progression. Complete or partial responses are assessed according to the RECIST 1.1 criteria as detailed below. In embodiments the ORR derived from the method of treatment is at least 15.7%, for example 20.3%.
A complete response denotes the disappearance of all target lesions (TLs) since baseline. Any pathological lymph nodes selected as TLs must have a reduction in short axis to <10 mm. A partial response denotes an at least a 30% decrease in the sum of the diameters of TL, taking as reference the baseline sum of diameters. […] Further information on the evaluation of target and non-target lesions is provided below.
The objective response rate (ORR) will be compared between AZD9833 (each dose level) and fulvestrant using a logistic regression model adjusting for prior use of CDK4/6 inhibitors and presence of lung and/or liver metastases.
Secondary endpoints: objective response rate. The ORR is defined as the percentage of patients with at least 1 Investigator-assessed visit response of CR or PR prior to any evidence of progression. The ORR will be based on a subset of the FAS with measurable disease at baseline.
The ORR will be compared between AZD9833 (each dose level) and fulvestrant using a logistic regression model adjusting for prior use of CDK4/6 inhibitors and presence of lung and/or liver metastases. The results of the analysis will be presented in terms of an odds ratio for each treatment comparison together with its associated profile likelihood 90% CI and 2 sided p values (based on twice the change in log-likelihood resulting from the addition of a treatment factor to the model).

[3] = system: ESR1m ctDNA; assay: SERENA-2 phase 2 study: changes in ESR1m ctDNA summed Variant Allele Frequency (sVAF %)
From the text: FIG. 6: Changes in ESR1m ctDNA summed Variant Allele Frequency (sVAF %) by treatment group and visit comparisons (pre-treatment is a comparison of samples collected at screening and cycle 1 day 1, C×D1 are comparisons of samples collected at cycle 1 day 1 and cycle×day 1). Variants defined as ESR1m are E380Q, V422del, S463P, L536H/P/R, Y537C/D/N/S. Points represent individual patients, box represents upper quartile, median and lower quartile, whiskers represent 1.5 interquartile range. Treatment with camizestrant 75 mg and 150 mg caused a 100% or near 100% reduction in the level of ESR1m at all timepoints.
Blood and plasma samples for circulating tumour (ctDNA) and cancer antigen 15-3 (CA15-3) analyses will be collected at screening, on Day 1 and Day 15 of Cycle 1, on Day 1 of Cycles 2 to 5, 8-weekly (Day 1 of every 2nd cycle) from Week 25 (Cycle 7) to coincide with tumour imaging, at the EOT and/or disease progression.
The following samples for biomarker research are optional and will collected from patients in the study where possible as specified in the SoA (Table 6). • Paired tumour biopsy samples; pre- and on-treatment. Samples will be collected for patients with tumours amenable to biopsies in up to 12 patients per treatment group. • Additional tumour biopsy samples may be collected at time of progression. Blood samples for circulating tumour DNA. […]

| SMILES | Hazard ratio for disease progression relative to fulvestrant ([1]; camizestrant 75 mg once daily) | Median PFS ([1]; camizestrant 75 mg once daily) | Hazard ratio for disease progression relative to fulvestrant ([1]; camizestrant 150 mg once daily) | Median PFS ([1]; camizestrant 150 mg once daily) | Number of patients with response ([2]; AZD9833 75 mg, N=70 with measurable disease) | Adjusted response rate (%) ([2]; AZD9833 75 mg) | ORR: comparison against fulvestrant, odds ratio ([2]; AZD9833 75 mg) | (%) of patients with response ([2]; AZD9833 75 mg) | Number of patients with response ([2]; AZD9833 150 mg, N=65 with measurable disease) | Adjusted response rate (%) ([2]; AZD9833 150 mg) | ORR: comparison against fulvestrant, odds ratio ([2]; AZD9833 150 mg) | (%) of patients with response ([2]; AZD9833 150 mg) | Reduction in the level of ESR1m (ctDNA sVAF) ([3]; camizestrant 75 mg and 150 mg, all timepoints vs cycle 1 day 1) | Median PFS ([1]; fulvestrant 500 mg once monthly injection) | Number of patients with response ([2]; fulvestrant, N=68 with measurable disease) | Adjusted response rate (%) ([2]; fulvestrant) | (%) of patients with response ([2]; fulvestrant) | Reduction in ESR1m ctDNA ([3]; fulvestrant arm, compared with camizestrant) |
| --- | --- | --- | --- | --- | --- | --- | --- | --- | --- | --- | --- | --- | --- | --- | --- | --- | --- | --- |
| C[C@@H]1Cc2c(ccc3[nH]ncc23)[C@@H](c2ccc(NC3CN(CCCF)C3)cn2)N1CC(F)(F)F [camizestrant, N-(1-(3-fluoropropyl)azetidin-3-yl)-6-((6S,8R)-8-methyl-7-(2,2,2-trifluoroethyl)-6,7,8,9-tetrahydro-3H-pyrazolo[4,3-f]isoquinolin-6-yl)pyridin-3-amine] | 0.56 | 7.4 months | 0.47 | 12.7 months | 11 | 15.7% | 1.43 | (15.7) % | 13 | 20.3% | 1.96 | (20.0) % | ~100% |  |  |  |  |  |
| C[C@]12CC[C@@H]3c4ccc(O)cc4C[C@@H](CCCCCCCCC[S+]([O-])CCCC(F)(F)C(F)(F)F)[C@H]3[C@@H]1CC[C@@H]2O (stereo partly drawn) [fulvestrant, reference compound] |  |  |  |  |  |  |  |  |  |  |  |  |  | 3.7 months | 8 | 11.5% | (11.8) % | the extent of the reduction is lower than that observed with camizestrant |
